Measured values published in patent US5519028A, “Antiviral preparations” (priority 1992, dated 1996).
“Also recorded” adds a separate entry of the source. Where two headings read alike, the source gives them in different places.

Key:
[1] = test system: human PBMC stimulated with PHA (blasts); assay: Cytotoxicity in PHA-stimulated PBMC with or without human AB serum; assay type: cell-based
Protocol: The cytotoxicity of flavopereirine (compound H) in human PBMC stimulated with PHA was tested in the presence and absence of human AB serum as shown in Table IX.

[2] = test system: viruses of the Shope fibrome type; settings: intracutaneously 200-600 μg or 2.5-500 mg/day; cited from earlier work
interleukin-6 = assay: IL-6 production by monocytes of HIV-positive donors; assay type: cell-based, human
Protocol: The effects of flavopereirine on the production of primary (IL-1β and TNF-α) and secondary (IL-6) cytokines by monocytes was also tested. The adhesive monocytes used were taken from the blood of two types of donors:
HIV-positive donors from medical consultations. These individuals were in the early stages of HIV infection and, at the moment of taking the blood, were not undergoing any treatment. The risk factors involved were intravenous drug abuse for six of the donors, sexual transmission for three and blood transfusion (in Zaire) for one patient. No correlation was found between the risk factors and the results of the experiments.
The response of the monocytes taken from the various HIV-positive donors was tested in terms of spontaneous response. The quantities of cells received were low (the donors were not affected by cytapheresy), and the experiments were therefore limited by the number of cells available.
Interleukin-4 was used at the same time as flavopereirine H, since it has been shown prior to these experiments that this cytokine blocks the spontaneous production of interleukin-6 in certain HIV-positive patients.
In five cases, […] was used for comparison, since this, too, blocks the production of IL-6 in normal monocytes stimulated by LPS.

HIV-1 TIG2 (HIV-1AIDS) = assay: HIV P24 production, target PBMC pretreated, isolate TIG2; assay type: cell-based; settings: for Post-infection production of HIV P24: PBMC + 30 μg/ml 2 hours
Protocol: To test the efficacy of flavopereirine on the infectious capability of HIV-1, two experiments were conducted. […] After 2 hours of incubation, the cells were rinsed twice and cultivated in 1 ml of RPMI 1640 containing 20 IU of IL-2 per ml (Boehringer […], Germany), 2 μg of Polybrene (hexadimethrine bromide) per ml (Sigma, St. Louis, Mo., USA) and 10^-7 IU of goat antiserum acting against human alpha interferon (Janssen, Beerse, Belgium) per ml. Half the culture was changed after 72 hours, and thereafter every 48 hours until the 30th day. […] The surface material of the culture was tested by an immuno-enzymatic (ELISA) assay for the production of antigen P24 (Abbott, Chicago, Ill., USA) and the optical density (OD) of the resulting color was converted into P24 concentration from the slope of a standard nomogram, as described by W. Lu and J. -M. Andrieu, Journal of Virology, 66(1): 334-340 (1992).

HIV-1 [3] = assay: HIV-1 cytopathogenic effect on MT4 cells (syncytia count); assay type: cell-based
Protocol: An evaluation of the antiviral effect of flavopereirine was also undertaken by studying the cytopathogenic effect of the HIV virus on MT4 cells, given that a formation of syncytia was observed 4-6 days after infection by HIV-1, followed by the death of the cells.
The flavopereirine was used in the form of an alcoholic solution (40 mg in 100 μl alcohol). Dilutions were made in RPMI medium at 10% of FCS, 1% of PSN and 1% of glutamine. The MT4 cells were left to pre-incubate for two hours at 37° C. with a successive dilution of flavopereirine containing 3×10^5 cells for 10 μl of flavopereirine solution. The solution was obtained by adding 100 μl of a 10^-4 dilution of HIV-1 virus, producing a syncytia formation in 4-6 days. After one hour of incubation at 37° C., the infected MT4 cells were washed three times with RPMI solution before being placed in culture (3×10^5 cells/ml in microplates with 24 wells) with the presence of different dilutions of flavopereirine. The syncytia count was taken each day in duplicate.

influenza virus = settings: cited from earlier work
[4] = Penetration of the blood-brain barrier (encephalic content); assay type: in vivo, male CDI mice; settings: 10 mg orally
HIV-1 [5] = test system: HIV-1
human PBMC at rest = assay: Cytotoxicity (viability) in resting PBMC; assay type: cell-based
Protocol: (§1) To evaluate the cytotoxicity of flavopereirine in resting PBMC and in blast cells, prewashed fresh and blastic PBMC taken from five randomly-selected,healthy, HIV-negative donors were treated in triplicate with 30 or 60 μg flavopereirine per ml of alcoholic solution for two hours, After washing twice, the cells were placed in culture in cellular culture medium until day 15. The viability of the cells of each group was examined by exclusion coloring with trypan blue and by quantimetric analysis. Cultures of HIV-negative PBMC without flavopereirine (compound H) were used as controls.

[6] = Cytotoxicity (viability) in resting PBMC; assay type: cell-based, human; settings: human, pbmc, read-out: Viability of PBMC after exposure; for viability at 72 h: d3; for viability at 168 h: d7; for viability at 264 h: d11; for viability at 312 h: d13; for viability at 360 h: d15
Protocol: as §1

HIV = assay type: cell-based
in vivo = settings: for LD50 at 336 h / LD50 safety limits: rat, in vivo
Protocol: In accordance with the invention, flavopereirine is administered orally in the forms of capsules to patients infected with HIV at levels of 1-3 grams per day.

## CCc1ccc2c3[nH]c4ccccc4c3cc[n+]2c1 [flavopereirine]
[1]; 200 μg/ml, p<0.001
  viability of blast PBMC: diminished significantly
[1]; 100, 60, 30 and 10 μg/ml
  significant reduction of viability of blast PBMC: this was not the case
[2]
  appearance and development of vital papules: prevents the appearance and development of vital papules
interleukin-6; alone, dosage effect, never total, p<0.05, listed as Product H
  effect on spontaneous production of IL-6: inhibitory effect with a very clear dosage effect; also recorded: inhibited the spontaneous production of IL-6 shown in some HIV-positive patients
interleukin-6; in presence of interleukin-4, listed as product H
  effect on spontaneous production of IL-6 with interleukin-4: an amplification effect was almost always obtained
interleukin-6; with interleukin-4, almost always (except case #4), p<0.05
  concentration for total disappearance of IL-6 production: 3 µg/mL
interleukin-6; with interleukin-4, often, p<0.05
  concentration for total disappearance of IL-6 production (often): 1 µg/mL
HIV-1 TIG2 (HIV-1AIDS); d3
  Post-infection production of HIV P24: 515 ± 103 pg/mL
HIV-1 TIG2 (HIV-1AIDS); d5
  Post-infection production of HIV P24: > 1500 pg/mL
HIV-1 TIG2 (HIV-1AIDS); target PBMC pretreated with 60 μg/ml only
  inhibition of productive viral infections: complete inhibition of productive viral infections
HIV-1 [3]; 100 ng/ml, d7, duplicate, Table I
  syncytia: ++/T
HIV-1 [3]; 1 μg/ml, d7, duplicate, Table I
  syncytia: ++/T
HIV-1 [3]; 30 μg/ml, d6, duplicate, Table III
  syncytia: a few were observed after 6 days
HIV-1 [3]; 50 μg/ml, d7, duplicate, Table I
  syncytia: syncytia had not formed after 7 days culture
HIV-1 [3]; 50 μg/ml, Table II summary
  protection: confirms the protection
HIV-1 [3]; 60 μg/ml, d7, duplicate, Table III
  syncytia: no syncytia were formed
HIV-1 [3]; from 10 μg/ml to 100 ng/ml, Table I summary
  syncytia: syncytia was observed, as it was in the HIV-1 control
Influenza virus; EP-A-0 059 817
  activity against the influenza virus: active against the influenza virus
Influenza virus; in vivo
  action against influenza (RNA virus): appears to act in vivo against influenza
[4]; 20 g mice, brains 0.5 g
  encephalic flavopereirine concentration: 14 µg/g
[4]; mice
  encephalic flavopereirine content: approximately 7 μg
  penetration of the blood-brain barrier: observed to penetrate the blood-brain barrier
HIV-1 [5]; 50% AB serum, 10 μg/ml 2 hrs, d4
  Production of P24 in HIV: 384 ± 83 pg/mL
HIV-1 [5]; 50% AB serum, 10 μg/ml 2 hrs, d10
  Production of P24 in HIV: > 1500 pg/mL
HIV-1 [5]; 50% AB serum, 30 μg/ml 2 hrs, d4
  Production of P24 in HIV: 275 ± 98 pg/mL
HIV-1 [5]; 50% AB serum, 30 μg/ml 2 hrs, d10
  Production of P24 in HIV: > 1500 pg/mL
HIV-1 [5]; 50% human serum
  efficacy on inhibition of wild HIV-1 in human serum: remained unchanged
HIV-1 [5]; HIV-1 inhibition at non-cytotoxic concentrations
  influence of constituents of human serum: did not appear to be influenced by the constituents of the human serum
HIV-1 [5]; no serum, 10 μg/ml 2 hrs, d4
  Production of P24 in HIV: 388 ± 124 pg/mL
HIV-1 [5]; no serum, 10 μg/ml 2 hrs, d10
  Production of P24 in HIV: > 1500 pg/mL
HIV-1 [5]; no serum, 30 μg/ml 2 hrs, d4
  Production of P24 in HIV: 173 ± 102 pg/mL
HIV-1 [5]; no serum, 30 μg/ml 2 hrs, d10
  Production of P24 in HIV: > 1500 pg/mL
Human PBMC at rest; 30 μg/ml
  significant reduction of viability of resting PBMC: this was not the case
Human PBMC at rest; 60 μg/ml, p<0.05
  viability of resting PBMC: reduced significantly
[6]; 30 μg/ml 2 hrs
  viability at 72 h: 95 ± 4%
  viability at 168 h: 93 ± 2%
  viability at 264 h: 88 ± 7%
  viability at 312 h: 82 ± 10%
  viability at 360 h: 81 ± 11%
[6]; 60 μg/ml 2 hrs
  viability at 72 h: 56 ± 6%
  viability at 168 h: 23 ± 4%
  viability at 264 h: 17 ± 4%
  viability at 312 h: 12 ± 5%
  viability at 360 h: 25 ± 8%
HIV
  infectious units detectable: ≤ 3000
  inhibition of infection: exceeds 99%
HIV; h-9 cells
  reduction in quantity of infected cells: around 40%
In vivo; ip
  LD50 at 336 h: 2450 mg/kg
  LD50 safety limits: 2350 to 2550 mg/kg
In vivo; po
  LD50 at 336 h: 10400 mg/kg
  LD50 safety limits: 9630 to 11350 mg/kg
In vivo; subsequent 14 days, surviving animals
  change in mortality rate: No change in mortality rate
